Reference: patent US11382328B2, “Rapid drug discovery methods for pathogen inactivation” (priority 2019, dated 2022)

System: E. coli strain W3110
Assay: Synergy assays: Biolog chemical sensitivity panels with Group IB metal, coefficient of drug interaction (CDI) from relative growth
Format: cell-based
Conditions: for CDI (coefficient of drug interaction): Copper (mM), E. coli; for CDI (coefficient of drug interaction), gold + biocide: Gold (μM)

colistin
CDI (coefficient of drug interaction) (1st of 3 copper concentrations (head line not shown), biocide concentration 1 of 4): 0.95
CDI (coefficient of drug interaction) (1st of 3 copper concentrations (head line not shown), biocide concentration 2 of 4): 0.98
CDI (coefficient of drug interaction) (1st of 3 copper concentrations (head line not shown), biocide concentration 3 of 4): Tox
CDI (coefficient of drug interaction) (1st of 3 copper concentrations (head line not shown), biocide concentration 4 of 4): Tox
CDI (coefficient of drug interaction) (2nd of 3 copper concentrations (head line not shown), biocide concentration 1 of 4): 0.82
CDI (coefficient of drug interaction) (2nd of 3 copper concentrations (head line not shown), biocide concentration 2 of 4): 0.87
CDI (coefficient of drug interaction) (2nd of 3 copper concentrations (head line not shown), biocide concentration 3 of 4): Tox
CDI (coefficient of drug interaction) (2nd of 3 copper concentrations (head line not shown), biocide concentration 4 of 4): Tox
CDI (coefficient of drug interaction) (3rd of 3 copper concentrations (head line not shown), biocide concentration 1 of 4): 0.63
CDI (coefficient of drug interaction) (3rd of 3 copper concentrations (head line not shown), biocide concentration 2 of 4): 0.45
CDI (coefficient of drug interaction) (3rd of 3 copper concentrations (head line not shown), biocide concentration 3 of 4): Tox
CDI (coefficient of drug interaction) (3rd of 3 copper concentrations (head line not shown), biocide concentration 4 of 4): Tox
CDI (coefficient of drug interaction), gold + biocide (first of 3 gold concentrations, biocide concentration 1 of 4): 1.10
CDI (coefficient of drug interaction), gold + biocide (first of 3 gold concentrations, biocide concentration 2 of 4): 1.18
CDI (coefficient of drug interaction), gold + biocide (first of 3 gold concentrations, biocide concentration 3 of 4): Tox
CDI (coefficient of drug interaction), gold + biocide (first of 3 gold concentrations, biocide concentration 4 of 4): Tox
CDI (coefficient of drug interaction), gold + biocide (second of 3 gold concentrations, biocide concentration 2 of 4): 0.95
CDI (coefficient of drug interaction), gold + biocide (second of 3 gold concentrations, biocide concentration 3 of 4): Tox
CDI (coefficient of drug interaction), gold + biocide (second of 3 gold concentrations, biocide concentration 4 of 4): Tox
CDI (coefficient of drug interaction), gold + biocide (third of 3 gold concentrations, biocide concentration 1 of 4): 1.09
CDI (coefficient of drug interaction), gold + biocide (third of 3 gold concentrations, biocide concentration 2 of 4): 0.14
CDI (coefficient of drug interaction), gold + biocide (third of 3 gold concentrations, biocide concentration 3 of 4): Tox
CDI (coefficient of drug interaction), gold + biocide (third of 3 gold concentrations, biocide concentration 4 of 4): Tox
CDI (Silver 0.5 μM, biocide concentration 1 of 4): 0.95
CDI (Silver 0.5 μM, biocide concentration 2 of 4): 0.75
CDI (Silver 0.5 μM, biocide concentration 3 of 4): Tox
CDI (Silver 0.5 μM, biocide concentration 4 of 4): Tox
CDI (Silver 1.0 μM, biocide concentration 1 of 4): 0.97
CDI (Silver 1.0 μM, biocide concentration 2 of 4): 0.24
CDI (Silver 1.0 μM, biocide concentration 3 of 4): Tox
CDI (Silver 1.0 μM, biocide concentration 4 of 4): Tox
CDI (Silver 5.0 μM, biocide concentration 1 of 4): 0.84
CDI (Silver 5.0 μM, biocide concentration 2 of 4): 0.08
CDI (Silver 5.0 μM, biocide concentration 3 of 4): Tox
CDI (Silver 5.0 μM, biocide concentration 4 of 4): Tox
